{
  "source": "patent US20120183635A1",
  "about": "“ROSEMARY EXTRACTS, DIETARY AND PHARMACEUTICAL COMPOSITIONS CONTAINING THEM AND THEIR USES” (DSM IP ASSETS B.V., priority 2006, published 2012)",
  "test_system": "duration of immobility",
  "test": "Porsolt's Forced Swim Test (FST) in the mouse",
  "format": "in vivo",
  "conditions": "32 mg/kg p.o., −24, −5, −1 h",
  "description": "Mice were individually placed in a cylinder (Height=24.5 cm, Diameter=19.5 cm) containing 13.5 cm water (22° C.) from which they could not escape. The mice were placed in the water for 6 min and the duration of immobility during the last 4 min was measured. Ten mice were studied per group. Rosemary extract (dissolved in corn oil) was evaluated at 272, 409 and 545 mg/kg body weight, administered orally 24, 5, and 1 h before the test, and compared with a vehicle-treated control group. Imipramine (32 mg/kg, p.o.; dissolved in distilled water), administered under the same experimental conditions, was used as reference substance. Data were analysed by comparing all groups using one-way Analysis of Variance (ANOVA) and the Bonferroni post-hoc test.",
  "data": [
    {"compound": "CN(C)CCCN1c2ccccc2CCc2ccccc21", "note": "[Imipramine, imipramine]", "values": [
      {"measurement": "DURATION OF IMMOBILITY % change from control", "result": "−59", "unit": "%"},
      {"measurement": "DURATION OF IMMOBILITY (as % total test time) mean ± S.D.", "result": "17.75 ± 9.92", "unit": "% total test time"}
    ]}
  ]
}
